Results as given in patent publication US20260285855A1, “HETEROARYL DERIVATIVES AS DDRS INHIBITORS” (CHIESI FARMACEUTICI S.P.A., priority 2023, published 2026).

Legend:
[1] = target: T1, DDR1 (Homo sapiens, UniProt Q08345); experiment: LanthaScreen Europium Kinase Binding assay, DDR1; conditions: 5 nM DDR1, 20 nM Kinase Tracer 178, 1 h at rt; Ki from IC50 by Cheng-Prusoff; read-out: Ki DDR1
T1 construct: purchased Carna Biosciences
Protocol: (§1) DDR1 and DDR2 binding assays were performed using Life Technologies LanthaScreen™ Europium Kinase Binding assay. […] IC50 values were determined in GraphPad Prism 7.0 software, using 4 parameter model: log (inhibitor) vs. response. IC50 values were converted in Ki using the Cheng-Prusoff equation (Ki-IC50/(1+ [Tracer]/Kd).

[2] = target: T2, DDR2 (Homo sapiens, UniProt Q16832); experiment: LanthaScreen Europium Kinase Binding assay, DDR2; conditions: 5 nM DDR2, 10 nM Kinase Tracer 178, 1 h at rt; Ki from IC50 by Cheng-Prusoff; read-out: Ki DDR2
T2 construct: purchased Life Technologies
T2 sequence (Q16832 22-855): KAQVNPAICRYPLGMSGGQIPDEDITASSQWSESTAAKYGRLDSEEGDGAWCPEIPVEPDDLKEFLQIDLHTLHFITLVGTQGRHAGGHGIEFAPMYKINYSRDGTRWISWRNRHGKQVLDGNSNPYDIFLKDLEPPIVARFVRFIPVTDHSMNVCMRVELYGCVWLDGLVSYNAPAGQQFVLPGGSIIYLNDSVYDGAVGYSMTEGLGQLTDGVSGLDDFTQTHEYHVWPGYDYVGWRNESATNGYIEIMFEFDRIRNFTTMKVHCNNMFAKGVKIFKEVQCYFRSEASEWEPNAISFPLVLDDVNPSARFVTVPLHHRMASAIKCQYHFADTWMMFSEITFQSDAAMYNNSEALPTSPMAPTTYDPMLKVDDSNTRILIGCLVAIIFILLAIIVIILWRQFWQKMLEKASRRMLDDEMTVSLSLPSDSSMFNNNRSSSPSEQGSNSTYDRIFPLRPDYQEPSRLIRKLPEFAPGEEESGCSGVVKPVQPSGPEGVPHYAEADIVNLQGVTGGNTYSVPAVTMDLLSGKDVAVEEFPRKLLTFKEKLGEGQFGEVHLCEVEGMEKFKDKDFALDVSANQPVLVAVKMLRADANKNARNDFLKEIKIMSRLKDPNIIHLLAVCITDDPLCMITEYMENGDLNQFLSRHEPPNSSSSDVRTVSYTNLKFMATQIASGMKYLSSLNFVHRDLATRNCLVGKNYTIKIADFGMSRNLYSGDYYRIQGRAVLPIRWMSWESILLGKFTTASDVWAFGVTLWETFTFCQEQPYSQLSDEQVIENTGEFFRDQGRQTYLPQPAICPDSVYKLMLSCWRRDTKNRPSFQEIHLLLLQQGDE
Protocol: as §1

T1 sequence (Q08345 19-913): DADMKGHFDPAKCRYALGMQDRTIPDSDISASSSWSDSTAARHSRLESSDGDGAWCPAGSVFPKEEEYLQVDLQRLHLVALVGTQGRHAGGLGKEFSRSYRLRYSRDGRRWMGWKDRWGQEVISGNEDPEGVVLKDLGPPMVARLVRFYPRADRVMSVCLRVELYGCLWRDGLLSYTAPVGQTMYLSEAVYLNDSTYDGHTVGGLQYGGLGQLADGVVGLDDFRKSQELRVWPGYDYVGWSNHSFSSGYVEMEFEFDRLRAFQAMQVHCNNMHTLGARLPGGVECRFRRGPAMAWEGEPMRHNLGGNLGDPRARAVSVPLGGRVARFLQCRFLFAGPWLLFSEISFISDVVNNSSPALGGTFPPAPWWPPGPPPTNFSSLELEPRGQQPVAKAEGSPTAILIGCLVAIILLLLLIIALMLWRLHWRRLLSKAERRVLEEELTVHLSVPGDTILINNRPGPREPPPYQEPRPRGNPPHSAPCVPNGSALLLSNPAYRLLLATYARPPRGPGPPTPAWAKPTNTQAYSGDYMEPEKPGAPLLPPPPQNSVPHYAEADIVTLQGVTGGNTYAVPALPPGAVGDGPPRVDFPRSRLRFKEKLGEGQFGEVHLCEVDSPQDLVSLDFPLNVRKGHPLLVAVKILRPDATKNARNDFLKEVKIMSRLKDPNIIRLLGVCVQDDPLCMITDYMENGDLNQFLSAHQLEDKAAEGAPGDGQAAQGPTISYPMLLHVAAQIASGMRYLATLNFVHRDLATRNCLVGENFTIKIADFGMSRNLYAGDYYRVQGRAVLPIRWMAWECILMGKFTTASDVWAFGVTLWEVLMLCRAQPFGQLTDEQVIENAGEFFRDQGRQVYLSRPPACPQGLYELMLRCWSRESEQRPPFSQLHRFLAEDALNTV

| Compound | Ki [1] | Ki [2] |
| --- | --- | --- |
| O=C(Nc1cccc(C(F)(F)F)c1)NC1CC2(C1)CN(C(=O)c1cnn3cc(CO)ccc13)C2 [Example 113, 1-(2-(6-(hydroxymethyl)pyrazolo[1,5-a]pyridine-3-carbonyl)-2-azaspiro[3.3]heptan-6-yl)-3-(3-(trifluoromethyl)phenyl)urea] | < 5 nM | < 5 nM |
| Cc1ncc(-c2ccc3c(C(=O)N4CC5(CC(N(C)C(=O)Nc6cncc(C(F)(F)F)c6)C5)C4)cnn3c2)o1 [Example 229, 1-methyl-1-(2-(6-(2-methyloxazol-5-yl)pyrazolo[1,5-a]pyridine-3-carbonyl)-2-azaspiro[3.3]heptan-6-yl)-3-(5-(trifluoromethyl)pyridin-3-yl)urea] | < 5 nM | 5 to 25 nM |
| CN(C(=O)Nc1cc(OC(F)F)ccn1)C1CC2(C1)CN(C(=O)c1cnn3ccn(C)c13)C2 [Example 177, 3-(4-(difluoromethoxy)pyridin-2-yl)-1-methyl-1-(2-(1-methyl-1H-imidazo[1,2-b]pyrazole-7-carbonyl)-2-azaspiro[3.3]heptan-6-yl)urea] | < 5 nM | 25 to 100 nM |
| CN(C(=O)Nc1cncc(C(C)(F)F)c1)C1CC2(C1)CN(C(=O)c1cnn3ccn(C)c13)C2 [Example 173, 3-(5-(1,1-difluoroethyl)pyridin-3-yl)-1-methyl-1-(2-(1-methyl-1H-imidazo[1,2-b]pyrazole-7-carbonyl)-2-azaspiro[3.3]heptan-6-yl)urea] | < 5 nM | 25 to 100 nM |
| Cc1nc(NC(=O)N(C)C2CC3(C2)CN(C(=O)c2cnn4ccsc24)C3)cc(C(F)(F)F)n1 [Example 289, 1-methyl-3-(2-methyl-6-(trifluoromethyl)pyrimidin-4-yl)-1-(2-(pyrazolo[5,1-b]thiazole-7-carbonyl)-2-azaspiro[3.3]heptan-6-yl)urea] | < 5 nM | 5 to 25 nM |
| Cc1ccc(OC(F)(F)F)cc1NC(=O)NC1CC2(C1)CN(C(=O)c1cnn3ccn(C)c13)C2 [Example 61, 1-(2-(1-methyl-1H-imidazo[1,2-b]pyrazole-7-carbonyl)-2-azaspiro[3.3]heptan-6-yl)-3-(2-methyl-5-(trifluoromethoxy)phenyl)urea] | < 5 nM | 5 to 25 nM |
| O=C(Nc1cccc(C(F)(F)F)c1)NC1CC2(C1)CN(C(=O)c1cnn3ccncc13)C2 [Example 2, 1-(2-(pyrazolo[1,5-a]pyrazine-3-carbonyl)-2-azaspiro[3.3]heptan-6-yl)-3-(3-(trifluoromethyl)phenyl)urea] | < 5 nM | 5 to 25 nM |
| CN(C(=O)Nc1cc(C(C)(C)C(F)(F)F)on1)C1CC2(C1)CN(C(=O)c1cnn3ccsc13)C2 [Example 235, 1-methyl-1-(2-(pyrazolo[5,1-b]thiazole-7-carbonyl)-2-azaspiro[3.3]heptan-6-yl)-3-(5-(1,1,1-trifluoro-2-methylpropan-2-yl)isoxazol-3-yl)urea] | < 5 nM | 5 to 25 nM |
| CN(C(=O)Nc1cc(I)ccn1)C1CC2(C1)CN(C(=O)c1cnn3ccn(C)c13)C2 [Example 254, 3-(4-iodopyridin-2-yl)-1-methyl-1-(2-(1-methyl-1H-imidazo[1,2-b]pyrazole-7-carbonyl)-2-azaspiro[3.3]heptan-6-yl)urea] | < 5 nM | 5 to 25 nM |
| CN(C(=O)Nc1cc(F)cc(C(F)(F)F)c1)C1CC2(C1)CN(C(=O)c1cnn3ccsc13)C2 [Example 60, 3-(3-fluoro-5-(trifluoromethyl)phenyl)-1-methyl-1-(2-(pyrazolo[5,1-b]thiazole-7-carbonyl)-2-azaspiro[3.3]heptan-6-yl)urea] | < 5 nM | < 5 nM |
| CN(C(=O)Nc1cccc(C(F)(F)F)c1)C1CC2(C1)CN(C(=O)c1ccnc3[nH]ccc13)C2 [Example 248, 1-(2-(1H-pyrrolo[2,3-b]pyridine-4-carbonyl)-2-azaspiro[3.3]heptan-6-yl)-1-methyl-3-(3-(trifluoromethyl)phenyl)urea] | < 5 nM | 5 to 25 nM |
| Cn1ccn2ncc(C(=O)N3CC4(CC(NC(=O)Nc5cc(C(F)(F)F)ccc5OC5COC5)C4)C3)c12 [Example 126, 1-(2-(1-methyl-1H-imidazo[1,2-b]pyrazole-7-carbonyl)-2-azaspiro[3.3]heptan-6-yl)-3-(2-(oxetan-3-yloxy)-5-(trifluoromethyl)phenyl)urea] | < 5 nM | 5 to 25 nM |
| Cc1ncc(-c2ccc3c(C(=O)N4CC5(CC(N(C)C(=O)Nc6cncc(C(F)(F)F)c6)C5)C4)cnn3c2)s1 [Example 234, 1-methyl-1-(2-(6-(2-methylthiazol-5-yl)pyrazolo[1,5-a]pyridine-3-carbonyl)-2-azaspiro[3.3]heptan-6-yl)-3-(5-(trifluoromethyl)pyridin-3-yl)urea] | < 5 nM | 5 to 25 nM |
| COc1c(CO)cc(OC(F)(F)F)cc1NC(=O)NC1CC2(C1)CN(C(=O)c1cnn3ccncc13)C2 [Example 212, 1-(3-(hydroxymethyl)-2-methoxy-5-(trifluoromethoxy)phenyl)-3-(2-(pyrazolo[1,5-a]pyrazine-3-carbonyl)-2-azaspiro[3.3]heptan-6-yl)urea] | 5 to 25 nM | 25 to 100 nM |
| CN(C(=O)Nc1cc(C(F)F)ccn1)C1CC2(C1)CN(C(=O)c1cnn3ccn(C)c13)C2 [Example 164, 3-(4-(difluoromethyl)pyridin-2-yl)-1-methyl-1-(2-(1-methyl-1H-imidazo[1,2-b]pyrazole-7-carbonyl)-2-azaspiro[3.3]heptan-6-yl)urea] | < 5 nM | 25 to 100 nM |
| Cn1ccn2ncc(C(=O)N3CC4(CC(NC(=O)Nc5cccc(S(F)(F)(F)(F)F)c5)C4)C3)c12 [Example 42, 1-(2-(1-methyl-1H-imidazo[1,2-b]pyrazole-7-carbonyl)-2-azaspiro[3.3]heptan-6-yl)-3-(3-(pentafluoro-16-sulfaneyl)phenyl)urea] | < 5 nM | 5 to 25 nM |
| CC(C)(C)c1cc(NC(=O)NC2CC3(C2)CN(C(=O)c2cnn4ccncc24)C3)no1 [Example 18, 1-(5-(tert-butyl)isoxazol-3-yl)-3-(2-(pyrazolo[1,5-a]pyrazine-3-carbonyl)-2-azaspiro[3.3]heptan-6-yl)urea] | 5 to 25 nM | 25 to 100 nM |
| CN(C(=O)Nc1cncc(C(F)(F)F)c1)C1CC2(C1)CN(c1cnc3[nH]ccc3c1)C2 [Example 220, 1-(2-(1H-pyrrolo[2,3-b]pyridin-5-yl)-2-azaspiro[3.3]heptan-6-yl)-1-methyl-3-(5-(trifluoromethyl)pyridin-3-yl)urea] | 5 to 25 nM | 25 to 100 nM |
| O=C(Nc1cccc(C(F)(F)F)c1)NC1CC2(C1)CN(C(=O)c1cnn3ccc(N4CCS(=O)(=O)CC4)cc13)C2 [Example 183, 1-(2-(5-(1,1-dioxidothiomorpholino)pyrazolo[1,5-a]pyridine-3-carbonyl)-2-azaspiro[3.3]heptan-6-yl)-3-(3-(trifluoromethyl)phenyl)urea] | < 5 nM | 5 to 25 nM |
| COCCn1ccn2ncc(C(=O)N3CC4(CC(N(C)C(=O)Nc5cccc(C(F)(F)F)c5)C4)C3)c12 [Example 203, 1-(2-(1-(2-methoxyethyl)-1H-imidazo[1,2-b]pyrazole-7-carbonyl)-2-azaspiro[3.3]heptan-6-yl)-1-methyl-3-(3-(trifluoromethyl)phenyl)urea] | < 5 nM | 5 to 25 nM |
| O=C(Nc1cccc(C(F)(F)F)c1)NC1CC2(C1)CN(C(=O)c1cnn3c1SCC3)C2 [Example 135, 1-(2-(2,3-dihydropyrazolo[5,1-b]thiazole-7-carbonyl)-2-azaspiro[3.3]heptan-6-yl)-3-(3-(trifluoromethyl)phenyl)urea] | < 5 nM | 5 to 25 nM |
| Cc1ccc(OC(F)(F)F)cc1NC(=O)N(C)C1CC2(C1)CN(C(=O)c1ncnc3ccsc13)C2 [Example 280, 1-methyl-3-(2-methyl-5-(trifluoromethoxy)phenyl)-1-(2-(thieno[3,2-d]pyrimidine-4-carbonyl)-2-azaspiro[3.3]heptan-6-yl)urea] | < 5 nM | < 5 nM |
| O=C(Nc1cncc(C(F)(F)F)c1)NC1CC2(C1)CN(C(=O)c1cnn3ccsc13)C2 [Example 22, 1-(2-(pyrazolo[5,1-b]thiazole-7-carbonyl)-2-azaspiro[3.3]heptan-6-yl)-3-(5-(trifluoromethyl)pyridin-3-yl)urea] | < 5 nM | 5 to 25 nM |
| CN(C(=O)Nc1cc(Br)ccn1)C1CC2(C1)CN(C(=O)c1cnn3ccsc13)C2 [Example 226, 3-(4-bromopyridin-2-yl)-1-methyl-1-(2-(pyrazolo[5,1-b]thiazole-7-carbonyl)-2-azaspiro[3.3]heptan-6-yl)urea] | < 5 nM | 5 to 25 nM |
